Read-outs that look alike come from different tables or passages of the source.
Key:
human sEH = human sEH (Homo sapiens (Human), UniProt P34913); assay: Inhibition of human soluble epoxide hydrolase (IC50; one of three substrate methods); assay type: biochemical;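 further: enzyme expressed in baculovirus and affinity-purified, assays run in triplicate, with substrate and read-out differing among the three methods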
[1] = Pharmacokinetic screening in dogs, oral administration, plasma LC-MS/MS; conditions: dog, plasma, po, 0.3 mg/kg

human sEH, sequence (P34913 whole entry): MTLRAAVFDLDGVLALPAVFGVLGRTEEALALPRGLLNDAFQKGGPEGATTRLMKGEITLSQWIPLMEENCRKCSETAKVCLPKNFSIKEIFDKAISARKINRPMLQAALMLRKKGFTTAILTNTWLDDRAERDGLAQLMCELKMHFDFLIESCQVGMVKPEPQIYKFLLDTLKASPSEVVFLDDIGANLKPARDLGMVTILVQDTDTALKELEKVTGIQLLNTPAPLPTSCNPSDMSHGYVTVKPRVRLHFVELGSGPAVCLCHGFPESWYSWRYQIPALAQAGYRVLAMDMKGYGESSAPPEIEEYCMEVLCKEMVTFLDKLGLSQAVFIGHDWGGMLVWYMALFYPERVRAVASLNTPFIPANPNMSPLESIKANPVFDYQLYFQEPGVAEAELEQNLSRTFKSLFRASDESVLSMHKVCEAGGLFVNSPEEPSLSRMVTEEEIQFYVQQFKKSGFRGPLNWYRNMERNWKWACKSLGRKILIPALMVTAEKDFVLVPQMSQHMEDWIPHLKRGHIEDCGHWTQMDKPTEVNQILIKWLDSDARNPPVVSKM

IC50 (human sEH; recombinant human sEH) | Structure (SMILES) | IC50 (human sEH) | AUC [1]
1.5 nM | COC(=O)c1ccc(C(=O)N2CCC(CNC(=O)NC34CC5CC(CC(C5)C3)C4)CC2)cc1 [Compound 1211, 4-{4-[(3-Adamantan-1-yl-ureido)-methyl]-piperidine-1-carbonyl}-benzoic acid methyl ester] | – | –
– | CC(=O)N1CCC(NC(=O)NC2CCCCCC2)CC1 [Compound 1645, 1-(1-Acetyl-piperidin-4-yl)-3-cycloheptyl-urea] | 27.6 nM | 3.68 µM·h
562 nM | O=C(NC1CCCCC1)NC1CCNCC1 [Compound 1602] | – | –
1.8 nM | O=C(NCC1CCN(C(=O)C(F)(F)F)CC1)NC12CC3CC(CC(C3)C1)C2 [Compound 1556] | – | –
4410 nM | Cc1c(COC(=O)NCc2cccnc2)cccc1-c1ccccc1 [Compound 1560, Pyridin-3-ylmethyl-carbamic acid 2-methyl-biphenyl-3-ylmethyl ester] | – | –
0.4 nM | Cc1ccc(S(=O)(=O)N2CCC(NC(=O)Nc3ccc(OC(F)(F)F)cc3)CC2)cc1 [Compound 1711, 1-[1-(Toluene-4-sulfonyl)-piperidin-4-yl]-3-(4-trifluoromethoxy-phenyl)-urea] | – | –
– | COC(=O)CCC(=O)N1CCC(NC(=O)NC23CC4CC(CC(C4)C2)C3)CC1 [Compound 1205, 4-[4-(3-Adamantan-1-yl-ureido)-piperidin-1-yl]-4-oxo-butanoic acid methyl ester] | 9 nM | –
457 nM | O=C(Nc1ccc2[nH]cnc2c1)NC1CCCCC1 [Compound 1569, 1-(1H-Benzoimidazol-5-yl)-3-cyclohexyl-urea] | – | –
28.3 nM | O=C(CC12CC3CC(CC(C3)C1)C2)NC1CCN(C(=O)C(F)(F)F)CC1 [Compound 1644] | – | –
2320 nM | O=C(Nc1ccc(OC(F)(F)F)cc1)NC1CCNCC1 [Compound 1570, 1-Piperidin-4-yl-3-(4-trifluoromethoxy-phenyl)-urea] | – | –
5020 nM | CCCCCCCCCCCCNC(=O)Nc1ccc2[nH]cnc2c1 [Compound 1568, 1-(1H-Benzoimidazol-5-yl)-3-dodecyl-urea] | – | –
87 nM | O=C(Nc1ccc2[nH]ccc2c1)NC1CCCCC1 [Compound 1554, 1-Cyclohexyl-3-(1H-indol-5-yl)-urea] | – | –
5.4 nM | O=C(NCC1CCN(C(=O)c2ccncc2)CC1)NC12CC3CC(CC(C3)C1)C2 [Compound 1435] | – | –

From patent US8501783B2, “Conformationally restricted urea inhibitors of soluble epoxide hydrolase” (The Regents of the University of California, priority 2006, dated 2013)
